According to ChEMBL document CHEMBL4138294, “Cybastacines A and B: Antibiotic Sesterterpenes from a Nostoc sp. Cyanobacterium” (2018):

What was measured:
Assay type in all cases: functional
[1] = system: Mycobacteroides abscessus; experiment: Antibacterial activity against Mycobacterium abscessus clinical isolate by CLSI M07-A9 protocol based assay
[2] = system: Nocardia carnea; experiment: Antibacterial activity against Nocardia carnea clinical isolate by CLSI M07-A9 protocol based assay
[3] = system: Nocardia cyriacigeorgica; experiment: Antibacterial activity against Nocardia cyriacigeorgica clinical isolate by CLSI M07-A9 protocol based assay
[4] = system: Tsukamurella pulmonis; experiment: Antibacterial activity against Tsukamurella pulmonis clinical isolate by CLSI M07-A9 protocol based assay
[5] = system: Streptococcus pyogenes; experiment: Antibacterial activity against Streptococcus pyogenes clinical isolate by CLSI M07-A9 protocol based assay
[6] = system: Enterococcus faecalis; experiment: Antibacterial activity against Enterococcus faecalis clinical isolate by CLSI M07-A9 protocol based assay
[7] = system: Enterococcus faecium; experiment: Antibacterial activity against Enterococcus faecium clinical isolate by CLSI M07-A9 protocol based assay
[8] = system: Staphylococcus aureus; experiment: Antibacterial activity against Staphylococcus aureus clinical isolate by CLSI M07-A9 protocol based assay
[9] = system: Staphylococcus epidermidis; experiment: Antibacterial activity against Staphylococcus epidermidis clinical isolate by CLSI M07-A9 protocol based assay

Row | MIC [1] [µg/mL] | MIC [2] [µg/mL] | MIC [3] [µg/mL] | MIC [4] [µg/mL] | MIC [5] [µg/mL] | MIC [6] [µg/mL] | MIC [7] [µg/mL] | MIC [8] [µg/mL] | MIC [9] [µg/mL] | SMILES
1 | ≤ 4 | ≤ 4 | ≤ 4 | ≤ 2 | ≤ 4 | ≤ 4 | ≤ 4 | ≤ 4 | ≤ 4 | CC1(C)CCC[C@]2(C)[C@@H]3C(=CC[C@@H]12)[C@@]1(C)CC[C@@]2(C)NC(=N)NC[C@@H]2[C@@]1(C)C[C@H]3O
2 | ≤ 16 | ≤ 16 | ≤ 16 | ≤ 8 | ≤ 32 | ≤ 32 | ≤ 32 | ≤ 32 | ≤ 32 | CC1(C)CCC[C@]2(C)C3=C(CC[C@@H]12)[C@@]1(C)CC[C@@]2(C)NC(=N)NC[C@@H]2[C@@]1(C)C[C@H]3O
3 | ≤ 8 | ≤ 8 | ≤ 8 | ≤ 8 | – | – | – | – | – | C[C@@H](O)[C@H]1C(=O)N2C(C(=O)O)=C(SCCNC=N)C[C@H]12 [IMIPENEM ANHYDROUS]

Row | SMILES | MIC [1] [µg/mL] | MIC [2] [µg/mL] | MIC [3] [µg/mL] | MIC [4] [µg/mL] | MIC [5] [µg/mL] | MIC [6] [µg/mL] | MIC [7] [µg/mL] | MIC [8] [µg/mL] | MIC [9] [µg/mL]
4 | CN[C@H](CC(C)C)C(=O)N[C@H]1C(=O)N[C@@H](CC(N)=O)C(=O)N[C@H]2C(=O)N[C@H]3C(=O)N[C@H](C(=O)N[C@H](C(=O)O)c4cc(O)cc(O)c4-c4cc3ccc4O)[C@H](O)c3ccc(c(Cl)c3)Oc3cc2cc(c3O[C@@H]2O[C@H](CO)[C@@H](O)[C@H](O)[C@H]2O[C@H]2C[C@](C)(N)[C@H](O)[C@H](C)O2)Oc2ccc(cc2Cl)[C@H]1O [VANCOMYCIN] | – | – | – | – | ≤ 16 | ≤ 8 | ≤ 8 | ≤ 8 | ≤ 8
